Data: ChEMBL document CHEMBL1201862, “PubChem BioAssay data set” (2004)
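Growth conditions: 96-well plates. Treatment: test compound, 48 hours, 5 concentrations. Analysis: linear interpolation between bracketing concentrations; unreached endpoints set to highest concentration. GI50: concentration for 50% inhibition of growth.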 Calls of active or inactive are those of the source. Rule as the data show it: active = GI50 up to about 1.1 µM and inactive = higher.

Columns and labels:
Assay in all cases: growth of human tumour cells (NCI), 48 h
A498 = test system: A498
ACHN = test system: ACHN
HCT-116 = test system: HCT-116
HOP-62 = test system: HOP-62
IGROV-1 = test system: IGROV-1
NCI-H226 = test system: NCI-H226
NCI-H23 = test system: NCI-H23
RPMI-8226 = test system: RPMI-8226
SF-295 = test system: SF-295
SF-539 = test system: SF-539
SK-MEL-5 = test system: SK-MEL-5
SW-620 = test system: SW-620
U-251 = test system: U-251
UACC-257 = test system: UACC-257
UO-31 = test system: UO-31

Row | Structure (SMILES) | GI50 (A498) | GI50 (ACHN) | GI50 (HCT-116) | GI50 (HOP-62) | GI50 (IGROV-1) | GI50 (NCI-H226) | GI50 (NCI-H23) | GI50 (RPMI-8226) | GI50 (SF-295) | GI50 (SF-539) | GI50 (SK-MEL-5) | GI50 (SW-620) | GI50 (U-251) | GI50 (UACC-257) | GI50 (UO-31)
1 | COC(=O)C1=C(c2cc(OC)c(OC)c(OC)c2)OC(c2cc(OC)c(OC)c(OC)c2)C1COC(C)=O (stereo not drawn) | 51.5 µM (inactive) | 30.1 µM (inactive) | 30.4 µM (inactive) | 36.6 µM (inactive) | 54.1 µM (inactive) | 46.1 µM (inactive) | 33.7 µM (inactive) | 29.1 µM (inactive) | 45.2 µM (inactive) | > 100 µM (inactive) | 29.4 µM (inactive) | 87.5 µM (inactive) | 51.6 µM (inactive) | 95.7 µM (inactive) | 27.2 µM (inactive)
2 | O=C(/C=C/c1ccccc1)/C=C/c1ccccc1O | 30.1 µM (inactive) | 19.4 µM (inactive) | 15.1 µM (inactive) | 38.8 µM (inactive) | 18.7 µM (inactive) | 22 µM (inactive) | 24.9 µM (inactive) | 16.4 µM (inactive) | 24.4 µM (inactive) | 22 µM (inactive) | 20.1 µM (inactive) | 11.6 µM (inactive) | 17.6 µM (inactive) | 20.8 µM (inactive) | 16.4 µM (inactive)
3 | Clc1ccc(CN2COc3c(cc(Cl)c4cccnc34)C2)cc1 | 12.1 µM (inactive) | 1.74 µM (inactive) | 2.15 µM (inactive) | 1.5 µM (inactive) | 2.36 µM (inactive) | 4.06 µM (inactive) | 2.57 µM (inactive) | 1.16 µM (inactive) | 2.52 µM (inactive) | 2.03 µM (inactive) | 2.26 µM (inactive) | 2.94 µM (inactive) | 2.32 µM (inactive) | 2.84 µM (inactive) | 0.649 µM (active)
4 | COC(=O)C(=O)C(C(=O)C1=NS(=O)(=O)c2cc(S(N)(=O)=O)c(Cl)cc2N1)c1nc2ccc(C(=O)c3ccccc3)cc2nc1O (stereo not drawn) | 51.5 µM (inactive) | > 100 µM (inactive) | > 100 µM (inactive) |  | > 100 µM (inactive) | > 100 µM (inactive) | 2.6 µM (inactive) | > 100 µM (inactive) | 72.4 µM (inactive) | 90.6 µM (inactive) | 40.2 µM (inactive) | > 100 µM (inactive) | > 100 µM (inactive) | 71.6 µM (inactive) | 79.4 µM (inactive)
5 | CC1=NN(C(=O)Cc2ccccc2)C(=O)/C1=C\c1ccc(O)cc1 | > 100 µM (inactive) | > 100 µM (inactive) | > 100 µM (inactive) | > 100 µM (inactive) | > 100 µM (inactive) | > 100 µM (inactive) | > 100 µM (inactive) | > 100 µM (inactive) | > 100 µM (inactive) | > 100 µM (inactive) | > 100 µM (inactive) | > 100 µM (inactive) | > 100 µM (inactive) | > 100 µM (inactive) | > 100 µM (inactive)
6 | CC1=C(C(=O)Nc2cccc(C(F)(F)F)c2)C(c2ccccc2F)C(C(=O)Nc2cccc(C(F)(F)F)c2)=C(C)N1 | 9.16 µM (inactive) | 4.2 µM (inactive) | 3.63 µM (inactive) | 12.9 µM (inactive) | 11.3 µM (inactive) | 4.38 µM (inactive) | 4.59 µM (inactive) | 2.58 µM (inactive) | 6.52 µM (inactive) | 8.75 µM (inactive) | 5.43 µM (inactive) | 7.08 µM (inactive) | 8.69 µM (inactive) | 8.65 µM (inactive) | 4.83 µM (inactive)
7 | CC1=C(C(=O)Nc2ccc([N+](=O)[O-])cc2)C(c2ccc(N(C)C)cc2)C(C(=O)Nc2ccc([N+](=O)[O-])cc2)=C(C)N1 | 20.7 µM (inactive) | 0.0475 µM (active) |  | 12.6 µM (inactive) | 19.1 µM (inactive) | 17.6 µM (inactive) | 18 µM (inactive) | 12.2 µM (inactive) | 27.5 µM (inactive) | 23 µM (inactive) | 15 µM (inactive) | 23.9 µM (inactive) | 21.9 µM (inactive) | 16.4 µM (inactive) | 21.5 µM (inactive)
